According to US12091409B2, “Ether linked triazoles as NRF2 activators” (ASTEX THERAPEUTICS LIMITED, priority 2016, dated 2024):
Where a name gives a salt, the structure may show the parent alone.

Tested on: NQO1 specific enzyme activity in BEAS-2B cells (marker for NRF2 activation)
Assay: BEAS-2B NQO1 MTT Assay
Type: cell-based
Conditions: Homo sapiens, BEAS-2B, 48 h, NQO1 specific activity induction, 48 hours with compound
Outline: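 Following 48 h compound treatment at 37° C., 5% CO2, cells were lysed and MTT cocktail added. Product formation was followed kinetically at 570 nm for 30 min. Rate (Delta OD/min) against log concentration was fitted with 3 parameters to give pEC50 for induction of NQO1 specific activity.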
With `CC[C@@H]1CN(Cc2cc([C@H](OCc3cn(CCOCCOC)nn3)C(C)(C)C(=O)O)ccc2C)S(=O)(=O)c2ccccc2O1` [Example 107, 3-(3-(((R)-4-ethyl-1,1-dioxido-3,4-dihydro-2H-benzo[b][1,4,5]oxathiazepin-2-yl)methyl)-4-methylphenyl)-3-((1-(2-(2-methoxyethoxy)ethyl)-1H-1,2,3-triazol-4-yl)methoxy)-2,2-dimethylpropanoic acid] the EC50 was < 1 nM.
For `Cc1ccc([C@H](OCc2cn(Cc3ccc(Cn4cc(CO[C@@H](c5ccc(C)c(CN6C[C@@H](C)Oc7ccccc7S6(=O)=O)c5)C(C)(C)C(=O)O)nn4)cc3)nn2)C(C)(C)C(=O)O)cc1CN1C[C@@H](C)Oc2ccccc2S1(=O)=O` (relative stereo) [Example 46, (R,rel-(3S,3'S))-3,3′-(((1,1′-(1,4-phenylenebis(methylene))bis(1H-1,2,3-triazole-4,1-diyl))bis(methylene))bis(oxy))bis(2,2-dimethyl-3-(4-methyl-3-(((R)-4-methyl-1,1-dioxido-3,4-dihydro-2H-benzo[b][1,4,5]oxathiazepin-2-yl)methyl)phenyl)propanoic acid)], the EC50 was 10 to 100 nM.
Compound `CC[C@@H]1CN(Cc2cc([C@@H](OCc3cn(CC)nn3)C(C)(C)C(=O)O)ccc2C)S(=O)(=O)c2ncccc2O1` [Example 82, (R)-3-(3-(((R)-4-ethyl-1,1-dioxido-3,4-dihydro-2H-pyrido[3,2-b][1,4,5]oxathiazepin-2-yl)methyl)-4-methylphenyl)-3-((1-ethyl-1H-1,2,3-triazol-4-yl)methoxy)-2,2-dimethylpropanoic acid] has an EC50 of 1 to 10 nM.
`CC[C@@H]1CN(Cc2cc(C(OCc3cn(Cc4cccc(Cn5cc(COC(c6ccc(C)c(CN7C[C@@H](CC)Oc8ccccc8S7(=O)=O)c6)C(C)(C)C(=O)O)nn5)c4)nn3)C(C)(C)C(=O)O)ccc2C)S(=O)(=O)c2ccccc2O1` (stereo partly drawn) [Example 47, (R)-3,3′-(((1,1′-(1,3-phenylenebis(methylene))bis(1H-1,2,3-triazole-4,1-diyl))bis(methylene))bis(oxy))bis(3-(3-(((R)-4-ethyl-1,1-dioxido-3,4-dihydro-2H-benzo[b][1,4,5]oxathiazepin-2-yl)methyl)-4-methylphenyl)-2,2-dimethylpropanoic acid)] showed an EC50 of 10 to 100 nM.
With `Cc1ccc([C@@H](OCc2cn(C)nn2)C(C)(C)C(=O)O)cc1CN1Cc2ncccc2O[C@H](C(C)C)C1` [Example 109, (R)-3-(3-(((R)-2-isopropyl-2,3-dihydropyrido[2,3-b][1,4]-oxazepin-4(5H)-yl)methyl)-4-methylphenyl)-2,2-dimethyl-3-((1-methyl-1H-1,2,3-triazol-4-yl)methoxy)propanoic acid] the EC50 was 10 to 100 nM.
For `COC(=O)C(C)(C)C(OCc1cn(Cc2cccc(-c3cccc(C(=O)O)n3)c2)nn1)c1ccc(C)c(CN2C[C@@H](C)Oc3ccccc3S2(=O)=O)c1` (stereo partly drawn) [Example 58, 6-(3-((4-((3-Methoxy-2,2-dimethyl-1-(4-methyl-3-(((R)-4-methyl-1,1-dioxido-3,4-dihydro-2H-benzo[b][1,4,5]oxathiazepin-2-yl)methyl)phenyl)-3-oxopropoxy)methyl)-1H-1,2,3-triazol-1-yl)methyl)-phenyl)picolinic acid], the EC50 was 100 to 1000 nM.
With `Cc1ccc(C(OCc2cn(CC3CCN(C(=O)C4CCOCC4)CC3)nn2)C(C)(C)C(=O)O)cc1CN1C[C@@H](C)Oc2ccccc2S1(=O)=O` (stereo partly drawn) [Example 35, 2,2-Dimethyl-3-(4-methyl-3-(((R)-4-methyl-1,1-dioxido-3,4-dihydro-2H-benzo[b][1,4,5]oxathiazepin-2-yl)methyl)phenyl)-3-((1-((1-(tetrahydro-2H-pyran-4-carbonyl)piperidin-4-yl)methyl)-1H-1,2,3-triazol-4-yl)methoxy)propanoic acid] the EC50 was 100 to 1000 nM.
In the case of `CC[C@@H]1CN(Cc2cc([C@@H](OCc3cn(C)nn3)C(C)(C)C(=O)O)ccc2C)Cc2ncccc2O1` [Example 108, (R)-3-(3-(((R)-2-Ethyl-2,3-dihydropyrido[2,3-f][1,4]oxazepin-4(5H)-yl)methyl)-4-methylphenyl)-2,2-dimethyl-3-((1-methyl-1H-1,2,3-triazol-4-yl)methoxy)propanoic acid Hydrochloride], the EC50 is reported as 10 to 100 nM.
With `CCCn1cc(CO[C@H](c2ccc(C)c(CN3C[C@@H](C)Cc4ncccc4S3(=O)=O)c2)C(C)(C)C(=O)O)nn1` [Example 89, (R)-2,2-dimethyl-3-(4-methyl-3-(((S)-4-methyl-1,1-dioxido-4,5-dihydropyrido[2,3-f][1,2]thiazepin-2(3H)-yl)methyl)phenyl)-3-((1-propyl-1H-1,2,3-triazol-4-yl)methoxy)propanoic acid] the EC50 was < 1 nM.
In the case of `CCn1cc(COC(c2ccc(C)c(CN(C3CCCCC3)S(=O)(=O)c3cccc(OC)c3)c2)C(C)(C)C(=O)O)nn1` (centres unmarked) [Example 96, 3-(3-(((N-cyclohexyl-3-methoxyphenyl)sulfamido)methyl)-4-methylphenyl)-3-((1-ethyl-1H-1,2,3-triazol-4-yl)methoxy)-2,2-dimethylpropanoic acid], the EC50 is reported as 100 to 1000 nM.
Work on `CCn1cc(COC(c2ccc(C)c(CN(Cc3ccccn3)S(=O)(=O)c3cccc(Br)c3)c2)C(C)(C)C(=O)O)nn1` (centres unmarked) [Example 74, 3-(3-(((3-Bromo-N-(pyridin-2-ylmethyl)phenyl)sulfonamido)methyl)-4-methylphenyl)-3-((1-ethyl-1H-1,2,3-triazol-4-yl)methoxy)-2,2-dimethylpropanoic acid] yielded an EC50 of 10 to 100 nM.
With `CCCn1cc(COC(c2ccc(C)c(CN3CC(C)(C)Oc4ccccc4S3(=O)=O)c2)C(C)(C)C(=O)O)nn1` (centres unmarked) [Example 9, 3-(3-((4,4-Dimethyl-1,1-dioxido-3,4-dihydo-2H-benzo[b][1,4]oxathiazepin-2-yl)methyl)-4-methylphenyl)-2,2-dimethyl-3-((1-propyl-1H-1,2,3-triazol-4-yl)methoxy)-propanoic acid] the EC50 was 1 to 10 nM.
For `COC(=O)C(C)(C)C(OCc1cn(Cc2cccc(-c3ccc(C(=O)O)cn3)c2)nn1)c1ccc(C)c(CN2C[C@@H](C)Oc3ccccc3S2(=O)=O)c1` (stereo partly drawn) [Example 59, 6-(3-((4-((3-Methoxy-2,2-dimethyl-1-(4-methyl-3-(((R)-4-methyl-1,1-dioxido-3,4-dihydro-2H-benzo[b][1,4,5]oxathiazepin-2-yl)methyl)phenyl)-3-oxopropoxy)methyl)-1H-1,2,3-triazol-1-yl)methyl)-phenyl)nicotinic acid], the EC50 was 1000 to 10000 nM.
With `CCCn1cc(CO[C@H](c2ccc(C)c(CN3C[C@H](C)Cc4ccc(F)cc4S3(=O)=O)c2)C(C)(C)C(=O)O)nn1` [Example 76, (3R)-(3-(((R)-8-fluoro-4-methyl-1,1-dioxido-4,5-dihydrobenzo[f][1,2]thiazepin-2(3H)-yl)methyl)-4-methylphenyl)-2,2-dimethyl-3-((1-propyl-1H-1,2,3-triazol-4-yl)methoxy)propanoic acid] the EC50 was 1 to 10 nM.
With `Cc1ccc(C(OCc2cn(Cc3cccc(Cn4cc(CCC(=O)O)nn4)c3)nn2)C(C)(C)C(=O)O)cc1CN1C[C@@H](C)Oc2ccccc2S1(=O)=O` (stereo partly drawn) [Example 45, 3-((1-(3-((4-(2-Carboxyethyl)-1H-1,2,3-triazol-1-yl)methyl)benzyl)-1H-1,2,3-triazol-4-yl)methoxy)-2,2-dimethyl-3-(4-methyl-3-(((R)-4-methyl-1,1-dioxido-3,4-dihydro-2H-benzo[b][1,4,5]oxathiazepin-2-yl)methyl)phenyl)propanoic acid] the EC50 was 100 to 1000 nM.
In the case of `CC[C@@H]1CN(Cc2cc(C(OCc3cn(Cc4cccc(-c5cccc(C(=O)O)c5)c4)nn3)C(C)(C)C(=O)O)ccc2C)S(=O)(=O)c2ccccc2O1` (stereo partly drawn) [Example 23, 3′-((4-((2-Carboxy-1-(3-(((R)-4-ethyl-1,1-dioxido-3,4-dihydro-2H-benzo[b][1,4,5]oxathiazepin-2-yl)methyl)-4-methylphenyl)-2-methylpropoxy)methyl)-1H-1,2,3-triazol-1-yl)methyl)-[1,1′-biphenyl]-3-carboxylic acid], the EC50 is reported as 10 to 100 nM.
For `CC[C@H]1Cc2ccccc2S(=O)(=O)N(Cc2cc([C@@H](OCc3cn(CC)nn3)C(C)(C)C(=O)O)ccc2C)C1` [Example 85, (3R)-((1-ethyl-1H-1,2,3-triazol-4-yl)methoxy)-2,2-dimethyl-3-(4-methyl-3-(((S)-4-ethyl-1,1-dioxido-4,5-dihydrobenzo[f][1,2]thiazepin-2(3H)-yl)methyl)phenyl)propanoic acid], the EC50 was < 1 nM.
For `CCCn1cc(CO[C@H](c2ccc(C)c(CN3C[C@@H](C)Cc4ccncc4S3(=O)=O)c2)C(C)(C)C(=O)O)nn1` [Example 83, (R)-2,2-dimethyl-3-(4-methyl-3-(((S)-4-methyl-1,1-dioxido-4,5-dihydropyrido[4,3-f][1,2]thiazepin-2(3H)-yl)methyl)phenyl)-3-((1-propyl-1H-1,2,3-triazol-4-yl)methoxy)propanoic acid], the EC50 was < 1 nM.

Tested on: rats in a cerebral ischemia-reperfusion model
Assay: not given
Conditions: cited from earlier work
For `CC(C)(C)c1cc(O)ccc1O` [tert-butylhydroquinone], the cortical damage is given as “reduced cortical damage”.

Tested on: NRF2 wild-type but not KO mice
Assay: not given
Conditions: after administration of tBHQ; cited from earlier work
In the case of `CC(C)(C)c1cc(O)ccc1O` [tert-butylhydroquinone], the cortical glutathione levels is listed as “increased in NRF2 wild-type but not KO mice”.

Tested on: rats on a choline-deficient L-amino acid-defined diet
Assay: not given
Conditions: cited from earlier work
In the case of `O=C(NCc1ccccn1)Nc1nnc(-c2ccco2)o1` [NK-252], the “progression of histologic abnormalities, especially hepatic fibrosis” value is listed as “significantly attenuated”.
In the case of `Cc1c(-c2cnccn2)ssc1=S` [oltipraz], the “progression of histologic abnormalities, especially hepatic fibrosis” value is listed as “significantly attenuated”.

Tested on: COPD macrophages and alveolar macrophages from cigarette smoke-exposed mice
Assay: not given
Conditions: cited from earlier work
For `C[S+]([O-])CCCCN=C=S` (centres unmarked) [Sulforaphane], the “expression of Macrophage Receptor with Collagenous structure (MARCO)” value is given as “increases the expression of Macrophage Receptor with Collagenous structure (MARCO)”.
